Measured values: US9365522B2, “Pyrazole amide derivative” (AMGEN INC., priority 2015, dated 2016)

Biological target: T1, human RORγ-LBD (Homo sapiens, UniProt P51449)
T1 construct: made in house; host or cells: E. coli (BL-21)
T1 sequence (P51449 262-518): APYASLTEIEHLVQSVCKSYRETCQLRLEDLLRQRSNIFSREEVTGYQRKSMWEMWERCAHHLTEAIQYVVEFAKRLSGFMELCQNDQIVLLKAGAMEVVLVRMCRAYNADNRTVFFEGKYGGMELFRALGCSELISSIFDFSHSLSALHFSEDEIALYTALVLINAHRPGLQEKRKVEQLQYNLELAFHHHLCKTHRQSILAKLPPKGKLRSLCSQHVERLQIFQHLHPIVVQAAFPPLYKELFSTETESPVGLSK
Test: ROR gamma coactivator peptide recruitment Alphascreen assay (RORγ-LBD binding to GRIP1 coactivator peptide)
Assay type: biochemical
Details: 5 nM human RORγ-LBD, 30 nM 7-β-hydroxycholesterol, 50 nM biotinylated GRIP1 coactivator peptide, overnight incubation at room temperature; read-out: result (pIC50, RORγ coactivator peptide recruitment Alphascreen assay) (converted)
Method in brief: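 Alphascreen proximity read-out after overnight room-temperature incubation, yielding pIC50 from 1-in-2 compound series (2.5% DMSO final). Mixture: 50 nM biotin-GRIP1 peptide, 30 nM 7-β-hydroxycholesterol agonist, 5 nM recombinant 6×His:Flag human RORγ-LBD (aa 262-518), 50 mM HEPES pH 7.4.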

| Structure (SMILES) | IC50 [nM] |
| --- | --- |
| COC1(CN(CC(=O)c2c(Cl)cncc2Cl)C(=O)c2cnn([C@H]3CC[C@@H](C(=O)O)CC3)c2C(F)(F)F)CCCC1 [Example 646, cis-4-(4-((2-(3,5-dichloro-4-pyridinyl)-2-oxoethyl)((1-methoxycyclopentyl)methyl)carbamoyl)-5-(trifluoromethyl)-1H-pyrazol-1-yl)cyclohexanecarboxylic acid] | 295 |
| Cc1cc(C)n(CCN(Cc2ccc(Cl)cc2)C(=O)c2cnn([C@H]3CC[C@H](C(=O)O)CC3)c2C(F)(F)F)c(=O)c1 [Example 544, trans-4-(4-((4-chlorobenzyl)(2-(4,6-dimethyl-2-oxo-1(2H)-pyridinyl)ethyl)carbamoyl)-5-(trifluoromethyl)-1H-pyrazol-1-yl)cyclohexanecarboxylic acid] | 3630 |
| CC(C)(C)CN(CC(=O)c1c(Cl)cncc1Cl)C(=O)c1cnn([C@H]2CC[C@@](C)(C(=O)O)C[C@@H]2F)c1C(F)(F)F [Example 870, (1R,3S,4S)-4-(4-((2-(3,5-dichloro-4-pyridinyl)-2-oxoethyl)(2,2-dimethylpropyl)carbamoyl)-5-(trifluoromethyl)-1H-pyrazol-1-yl)-3-fluoro-1-methylcyclohexanecarboxylic acid] | 575 |
| C[C@@H]1C[C@@H](n2ncc(C(=O)N3CC4(CC=CC4)C[C@@H]3Cc3c(Cl)cncc3Cl)c2C(F)(F)F)CC[C@@H]1C(=O)O [Example 809, (1S,2R,4S)-4-(4-(((3R)-3-((3,5-dichloro-4-pyridinyl)methyl)-2-azaspiro[4.4]non-7-en-2-yl)carbonyl)-5-(trifluoromethyl)-1H-pyrazol-1-yl)-2-methylcyclohexanecarboxylic acid] | 17.8 |

Results, then the compound that gave them:

| IC50 [nM] | Structure (SMILES) |
| --- | --- |
| 7.24 | C[C@]1(C(=O)O)CC[C@H](n2ncc(C(=O)N(CC(=O)c3c(Cl)cncc3Cl)C[C@@H]3CC3(F)F)c2C(F)(F)F)CC1 [Example 818, trans-4-(4-((2-(3,5-dichloro-4-pyridinyl)-2-oxoethyl)(((1S)-2,2-difluorocyclopropyl)methyl)carbamoyl)-5-(trifluoromethyl)-1H-pyrazol-1-yl)-1-methylcyclohexanecarboxylic acid] |
| 5890 | C[C@]1(C(=O)O)CC[C@H](n2ncc(C(=O)N3C[C@H](C4CCCCC4)C[C@@H]3C(=O)c3c(Cl)cncc3Cl)c2C(F)(F)F)CC1 (single isomer, unassigned) [Example 822] |
| 2.09 | CC1(CN(CCc2c(Cl)cncc2Cl)C(=O)c2cnn([C@H]3CC[C@](C)(C(=O)O)CC3)c2C(F)(F)F)CCCC1 [Example 591, trans-4-(4-((2-(3,5-dichloro-4-pyridinyl)ethyl)((1-methylcyclopentyl)methyl)carbamoyl)-5-(trifluoromethyl)-1H-pyrazol-1-yl)-1-methylcyclohexanecarboxylic acid] |
| 50.1 | C[C@@]1(CN(CCc2c(Cl)cncc2Cl)C(=O)c2cnn([C@H]3CC[C@](C)(C(=O)O)CC3)c2C(F)(F)F)CCCO1 [Example 682, trans-4-(4-((2-(3,5-dichloro-4-pyridinyl)ethyl)(((2S)-2-methyltetrahydro-2-furanyl)methyl)carbamoyl)-5-(trifluoromethyl)-1H-pyrazol-1-yl)-1-methylcyclohexanecarboxylic acid] |
| 2.45 | CC1(C)[C@@H]2C[C@H](N(CC(=O)c3c(Cl)cncc3Cl)C(=O)c3cnn([C@H]4CC[C@](C)(C(=O)O)CC4)c3C(F)(F)F)C[C@@H]21 [Example 558, trans-4-(4-((2-(3,5-dichloro-4-pyridinyl)-2-oxoethyl)((1R,3r,5S)-6,6-dimethylbicyclo[3.1.0]hex-3-yl)carbamoyl)-5-(trifluoromethyl)-1H-pyrazol-1-yl)-1-methylcyclohexanecarboxylic acid] |
